Test results as given in ChEMBL document CHEMBL5214892, “Antitumor potential of the protein phosphatase inhibitor, cantharidin, and selected derivatives” (Bioorg Med Chem, 2021).
Values after ≈ are worked out from the molar mass of the structure shown.

What was measured:
[1] = Inhibition of rabbit liver PP2C assessed as dephosphorylation of substrate using P32 labelled peptide as substrate by radiometric analysis; design: species or system Oryctolagus cuniculus
[2] = Inhibition of bovine brain PP2A assessed as dephosphorylation of substrate using P32 labelled peptide DLDVPIPGRFDRRVSVAAE as substrate by radiometric analysis; design: species or system Bos taurus
[3] = Anticancer activity against human oral cancer cell assessed as cell growth inhibition; type: functional, cell-based
[4] = system: HepG2; test: Anticancer activity against human HepG2 cells assessed as cell growth inhibition measured after 72 hrs by MTT assay; type: functional, cell-based; details: HepG2, 72 h
[5] = Anticancer activity against human leukaemia cell line assessed as cell growth inhibition; type: functional, cell-based
[6] = system: KB 3-1; test: Anticancer activity against human KB 3-1 cells assessed as cell growth inhibition measured after 72 hrs by MTT assay; type: functional, cell-based; details: KB 3-1, 72 h
[7] = system: HL-60; test: Anticancer activity against human HL-60 cells assessed as cell growth inhibition measured after 72 hrs by MTT assay; type: functional, cell-based; details: HL-60, 72 h
[8] = Inhibition of PP1 (unknown origin); design: species or system Homo sapiens
[9] = Toxicity in mouse assessed as lethal dose administered intraperitoneally; details: in vivo, route ip
[10] = species on record: Homo sapiens; test: Anticancer activity against human Liver cancer cell assessed as cell growth inhibition; type: functional
[11] = system: HepG2; test: Anticancer activity against human HepG2 cells assessed as cell growth inhibition incubated for 2 days by MTT assay; type: functional, cell-based; details: HepG2, 48 h
[12] = system: Hep 3B2; test: Anticancer activity against human Hep3B cells assessed as cell growth inhibition incubated for 48 hrs by MTT assay; type: functional, cell-based
[13] = Inhibition of PP (unknown origin); design: species or system Homo sapiens
[14] = system: SMMC-7721; test: Anticancer activity against human SMMC-7721 cell assessed as cell growth inhibition measured after 24 to 48 hrs by SRB colorimetry assay; type: functional, cell-based
[15] = system: Bel-7402; test: Anticancer activity against human Bel-7402 cell assessed as cell growth inhibition measured after 24 to 48 hrs by SRB colorimetry assay; type: functional, cell-based
[16] = system: MIA PaCa-2; test: Anticancer activity against human MIA PaCa-2 cells assessed as cell growth inhibition measured after 72 hrs by MTT assay; type: functional, cell-based; details: MIA PaCa-2, 72 h
[17] = system: HT-29; test: Anticancer activity against human HT-29 cells assessed as cell growth inhibition measured after 72 hrs by MTT assay; type: functional, cell-based; details: HT-29, 72 h
[18] = system: BE(2)-C; test: Anticancer activity against human BE2C cells assessed as cell growth inhibition measured after 72 hrs by MTT assay; type: functional, cell-based
[19] = system: MCF7; test: Anticancer activity against human MCF7 cells assessed as cell growth inhibition measured after 72 hrs by MTT assay; type: functional, cell-based; details: MCF7, 72 h
[20] = system: Colon cancer cell line; test: Anticancer activity against human Colon carcinoma cell assessed as cell growth inhibition; type: functional, cell-based
[21] = system: DU-145; test: Anticancer activity against human DU-145 cells assessed as cell growth inhibition measured after 72 hrs by MTT assay; type: functional, cell-based; details: DU-145, 72 h
[22] = system: A-431; test: Anticancer activity against human A-431 cells assessed as cell growth inhibition measured after 72 hrs by MTT assay; type: functional, cell-based; details: A-431, 72 h
[23] = system: Hep 3B2; test: Anticancer activity against human Hep3B cells assessed as cell growth inhibition incubated for 48 hrs by MTS assay; type: functional, cell-based
[24] = Cytotoxicity against human Bone marrow cell assessed as cell growth inhibition by MTS assay; type: toxicity, cell-based; details: bone marrow cells
[25] = system: Lung cancer cell line; test: Anticancer activity against human Lung cancer cell line assessed as cell growth inhibition; type: functional, cell-based
[26] = Homo sapiens, Liver cancer cell

Row | Structure (SMILES) | IC50 [1] [µM] | IC50 [2] [µM] | IC50 [4] [µM] | IC50 [6] [µM] | IC50 [7] [µM] | IC50 [8] [µM] | LD50 [9] [mg/kg] | IC50 [10, 26] [µM] | further results
1 | C[C@]1(C(=O)O)[C@@H]2CC[C@@H](O2)[C@@]1(C)C(=O)O | > 1000 | 0.05 | 218 | 79.2 | 103 | 0.56 | 1.8 | > 50 | IC50 [3]: > 50 µM; IC50 [5]: > 50 µM
2 | O=C(O)[C@@H]1[C@H](C(=O)O)[C@H]2CC[C@@H]1O2 [listing 1 of 2 here] |  |  |  |  |  |  |  |  | IC50 [11]: 15.4 µM; IC50 ([10]; liver cancer cell): 15 µM
3 | CN1C(=O)[C@@]2(C)[C@@H]3CC[C@@H](O3)[C@@]2(C)C1=O |  |  |  |  |  |  |  |  | IC50 [12]: > 2000 µM
4 | O=C1OC[C@@H]2[C@H]1[C@H]1CC[C@@H]2O1 |  | 99.9 | > 200 | 112 | > 200 | 62.2 |  |  | 
5 | C[C@@]12COC(=O)[C@]1(C)[C@H]1CC[C@@H]2O1 |  | > 200 | > 200 | > 200 | > 200 | > 200 |  |  | 
6 | C[C@@]12C(=O)OC(=O)[C@@H]1[C@H]1CC[C@@H]2O1 | > 1000 | 0.12 |  |  |  | 0.66 |  |  | IC50 [13]: < 1 µM
7 | O=C(O)[C@@H]1[C@H](C(=O)O)[C@H]2CC[C@@H]1O2 [listing 2 of 2 here] |  |  |  |  |  |  |  | 12 | IC50 [14]: 12.5 µM; IC50 [15]: 12.5 µM
8 | O=C(NCc1ccc(-c2ccccc2)cc1)C(CNC(=O)[C@H]1[C@@H](C(=O)O)[C@@H]2CC[C@H]1O2)Cc1ccco1 (stereo not given in full) |  |  |  |  |  |  |  |  | IC50 [16]: 0.056 µM; IC50 [17]: 0.015 µM; IC50 [18]: 0.029 µM; IC50 [19]: 0.027 µM; IC50 [20]: 0.015 µM; IC50 [21]: 0.026 µM; IC50 [22]: 0.045 µM
9 | C[C@@]12C(=O)N(c3ncc([N+](=O)[O-])s3)C(=O)[C@]1(C)[C@H]1CC[C@@H]2O1 |  |  |  |  |  |  |  | < 1 | IC50 [12]: 0.4 µM
10 | C[C@@]12C(=O)N(c3nc4ccc(OC(F)(F)F)cc4s3)C(=O)[C@]1(C)[C@H]1CC[C@@H]2O1 [CANTHARIDIMIDE] |  |  |  |  |  |  |  | 6.5 | IC50 [23]: 15.8 µM; IC50 [24]: > 12.5 µg/mL
11 | C[C@@]12C(=O)OC(=O)[C@]1(C)[C@H]1CC[C@@H]2O1 [CANTHARIDIN] | > 1000 | 0.04 | 19.1 | 2.7 | 2.7 | 0.47 | 1 | 2 | IC50 [24]: 6.5 µg/mL (≈ 33.1 µM); IC50 [3]: 2 µM; IC50 [5]: 2 µM; IC50 [20]: 2 µM; IC50 [25]: 2 µM
12 | O=C1OC(=O)C2C3CCC(O3)C12 (stereo not given) [DEMETHYL-CANTHARIDIN] |  | 0.37 | 213 | 69.5 | 15.7 | 1.98 | 4 | > 15 | IC50 [3]: > 15 µM; IC50 [5]: > 15 µM; IC50 [20]: > 15 µM
13 | O=C(O)[C@@H]1[C@H](C(=O)O)[C@H]2CC[C@@H]1O2 [ENDOTHALL] | > 1000 | 0.97 |  |  |  | 5 | 14 |  | IC50 [13]: > 0.9 µM
